Results reported in US10919889B2, “Chiral heterocyclic compound with hedgehog pathway antagonist activity, method and use thereof” (SUZHOU KINTOR PHARMACEUTICALS, INC., priority 2016, dated 2021).
“Also recorded” adds a separate entry of the source. Read-outs that look alike come from different tables or passages of the source.

Legend:
[1] = Rat pharmacokinetics experiments; type: in vivo, Sprague-Dawley rats; settings: for Vd: read-out: Apparent volume of distribution Vd, ss; for AUC(0-t): read-out: Area under the curve AUC0-24 h; for clearance: read-out: Clearance CL; for bioavailability / concentration at 8 h: po; for concentration at 8 h: oral dose 10 mg/kg
Protocol: Male Spraguee-Dawley rats (body weight: 220 g˜250 g) were purchased from Slac Laboratory Animals (Shanghai). […] Blood samples were taken through the posterior orbital vein and the blood samples were placed in a tube containing EDTA (as an anticoagulant) and stored in a −80° C. environment after centrifugation with a refrigerated centrifuge. Blood sample (at an amount of folds of 25 μL) was taken and cold acetonitrile containing the internal standard (100 μL) was added. Sample was centrifuged for 10 minutes to precipitate the plasma protein. Finally, supernatant (10 μL) was injected into the LC-MS/MS system for analysis.
LC-MS/MS analysis method: All samples were analyzed by LC-MS/MS system of API4000 QTRAP mass spectrometer equipped with LC-20AD and CBM-20A controllers, DGU-20A solvent degasser and SIL-20A autosampler (Japan Shimadzu, Colombia, Md., USA). A Bona Aeger Venusil XBP C18 column (50×2.1 mm; filler 5 micron particle size) was used for HPLC separation. The column temperature was maintained at 40° C. The flow rate was 0.3 mL/min and the total run time was 6 minutes.
For the quantification of MS/MS, the API4000 QTRAP mass spectrometer was operated in an ESI positive mode with multiple reaction monitoring (MRM). All compounds and internal standards were set to be monitored during a residence time of 100 milliseconds. The other MS/MS parameters were set as follows: atomization gas (GS1) at 30 psi, 551b turbine pressure, 4500V ion spray voltage, 500° C. ion source temperature. For the selected ion transitions, each analyte was tested at the optimal sensitivity of the cluster potential (DP) and the collision energy (CE). Finally, the data was collected and processed using AB SCIEX Analysist 1.5.2 data collection and integration software.
Test subjects, Sprague-Dawley rats (body weight from about 220 g to about 250 g), were purchased from Slac Laboratory Animals (Shanghai, China). All compounds tested at 1 mg/mL concentration, either intravenous injected at a tail vein at 1 mL/kg dosage for one group of test subjects or administered orally at a dose of 10 mL/kg in another group of test subjects. Then aliquots of blood samples were collected by retro-orbital venous plexus puncture at time intervals after the injection/administration. The blood samples were kept in tubes containing EDTA, centrifuged and stored at −80° C. before analysis. Blank plasma was collected by the same method before rats were treated with compounds. Plasma samples for analysis were obtained by removing about 25 μL from the saved blood sample; adding cold acetonitrile (about 100 μL) as internal standard; centrifuged for 10 minutes to precipitate plasma proteins; and collect about 10 μL of the upper clear solution for analysis done by an LC-MS/MS system.
All samples were analyzed by an API 4000 QTRAP® LC/MS/MS System equipped with Shimadzu LC-20AD pump, Shimadzu CBM-20A controller, SIL-20A autosampler and DGU-20A degasser (Shimadzu, Columbia, Md., USA). A Venusil XBP C18 HPLC Column (2.1×50 mm, 5 μm) (Bonna-Agela Technologies) was used for HPLC separation at isocratic temperature of 40° C. Flow rate was kept at 0.3 mL/min and the total run time was kept at 6 minutes.
Quantification by MS/MS is done using the above-described API 4000 QTRAP mass spectrometer equipped with multiple reaction monitoring (MRM) and positive electrospray ionization (ESI+) modes. All compounds and internal standard were detected at […] of about 100 milliseconds. Other parameters for MS/MS are shown below: Ion Source Gas 1 (GS1) at 30 psi, turbine pressure at 55 pounds, ion spray voltage at 4500 V, and ion source temperature at 500° C. MRM measurements of the analytes were performed using declustering potential (DP) and […] values optimized for each analyte. Finally, all of the operations, the acquisition and analysis of data were controlled by Analyst (version 1.5.2, AB Sciex, USA).

[2] = system: primary medulloblastoma of Patched (PTCH)+/−, p53−/− mice; experiment: Mouse tumor model (tumor inhibition); type: in vivo, SCID mice; settings: 100 mg/kg/day, 14 days
Protocol: Tumor cells from the primary medulloblastoma of Patched (PTCH)+/−, p53−/− mice were injected subcutaneously into the right side of SCID mice. About 7 days after implantation, treatments were started when the tumor volume grew to an average of 200 mm^3. Animals were randomly divided into blank group, compound B administration group and compound B1 administration group. The doses of compound B1 and racemic compound B were 100 mg/kg/day. Tumor volume […] and body weight (g) were recorded every other day. After 14 days of administration, mice were sacrificed and the tumors were removed.
Primary medulloblastoma (5×10^6) from Patched(PTCH)+/−, p53−/− mice can be […] injected into the right sides of SCID mice. Seven days after the injection, treatment with drugs can start when the average size of tumors reaches 200 mm^3. Subjects can be randomly assigned to the control group, the compound B-treatment group and the compound B1-treatment group. Compounds B and B1 can be administered at dosages of about 100 mg/kg/day. The tumor volume and the body weights of the subjects can be measured and recorded every other day. On the 14th day after the drug administration, the subjects can be sacrificed and their tumors can be removed.

[3] = male, Sprague-Dawley, plasma, intravenous injection, 2 mg/kg
[4] = male, Sprague-Dawley, plasma, oral, 10 mg/kg
[5] = male, Sprague-Dawley, plasma, oral, 10 mg/kg, read-out: Maximum plasma concentration Cmax
[6] = male, Sprague-Dawley, plasma, oral, 10 mg/kg, read-out: Peak time Tmax
[7] = male, Sprague-Dawley, plasma, 10 mg/kg, P.O. 10 mg/kg vs I.V. 2 mg/kg, read-out: F %
[8] = male, Sprague-Dawley, plasma, 10 mg/kg, oral 10 mg/kg vs intravenous 2 mg/kg, read-out: Bioavailability F %
[9] = male, Sprague-Dawley, plasma, 10 mg/kg, read-out: plasma concentration after 8 hours
[10] = male, Sprague-Dawley, plasma, 10 mg/kg, read-out: plasma concentration after 8 hours in terms of molecular weight conversion
[11] = male, Sprague-Dawley, plasma, 10 mg/kg, oral, read-out: bioavailability

Row | SMILES | AUC0-24 h ([1]; I.V., 2 mg/kg) [ng·h/mL] | CL ([1]; I.V., 2 mg/kg) [mL/min/kg] | AUC0-24 h ([1]; P.O., 10 mg/kg) [ng·h/mL] | Vd [1, 3] [L/kg] | AUC(0-t) [1, 3] [ng·h/mL] | clearance [1, 3] [mL/min/kg] | AUC(0-t) [1, 4] [ng·h/mL] | Cmax [1, 5] [ng/mL] | Tmax [1, 6] [h] | bioavailability [1, 7] [%] | bioavailability [1, 8] [%] | concentration at 8 h [1, 9] [ng/mL] | concentration at 8 h [1, 10] [nM] | bioavailability [1, 11] [%] | effect on tumor volume (in words) [2] | also measured
1 | Cc1cnc(-c2cc(N3CCc4nc(N5CCC(O)CC5)ncc4C3C)ncc2Cl)c(C)c1 (racemic) [B] | 2905 | 11.4 | 7685 | 3.1 | 2900 | 11.4 | 7680 | 1690 | 0.5 | 53 | 53 | 83 | 178 | 53 | stop the tumor from growing; also recorded: only stopped the growth of tumor; also recorded: may stop the tumors from growing | effect on tumor volume (in words) ([2]; listed as racemic compound): only stop the tumor growth
2 | Cc1cnc(-c2cc(N3CCc4nc(N5CCC(O)CC5)ncc4[C@H]3C)ncc2Cl)c(C)c1 [Compound B1, (R)-1-(6-(5′-chloro-3,5-dimethyl-[2,4′-bipyridin]-2′-yl)-5-methyl-5,6,7,8-tetrahydropyrido[4,3-d]pyrimidin-2-yl)piperidin-4-ol] | 2233 | 14.4 | 12324 | 2.2 | 2230 | 14.4 | 12300 | 1520 | 1 | 100 | 100 | 623 | 1340 | ~100 | reduce the tumor volume to almost disappear; also recorded: may decrease the tumor volume | increase of drug exposure (AUC) over that of A-55 [1]: 122%; t1/2 ([1]; I.V., 2 mg/kg): 1.7 h; Cmax ([1]; P.O., 10 mg/kg): 1520 ng/mL; Tmax ([1]; P.O., 10 mg/kg): 1 h; half-life ([1]; male, Sprague-Dawley, plasma, intravenous injection, 2 mg/kg, read-out: Half-life t1/2 (converted)): 1.7 h; effect on tumor volume (in words) ([2]; listed as chiral compound): shrink the tumor volume to almost undetectable
